Experiments:
human SMN protein = experiment: Western blot of SMN protein in SMA patient fibroblasts (3813); assay type: cell-based; conditions: SMA patient cells (3813), 0.1-10 μM, FIG. 2
Method: Type I spinal muscular atrophy (SMA)-affected human primary fibroblasts (#GM03813) and carrier parents (#GM03814, parent and #GM03815, […]) are obtained live with low passage number from Coriell Cell Repositories. […] For detection of SMN protein in patient fibroblasts, 8,000 cells per cm^2 are plated 24 hours prior to drug addition. Fresh media and compound are added every 24 hours. After 72 hours, cells are harvested, washed with cold PBS, and lysed. Samples are subjected to polyacrylamide gel electrophoresis (PAGE). It is determined that 10 μg total protein per lane is within the linear range for immunoblot detection of SMN and alpha-tubulin. Western blots of the gel are probed for SMN with the 4B7 mouse monoclonal antibody (from the lab of Christian Lorson). A goat anti-mouse antibody (Santa Cruz Biotechnology/#sc-2005) conjugated to horseradish peroxidase (HRP) is used as the secondary antibody. Quantification of protein is performed by detecting chemiluminescence with a Fujifilm LAS-4000 Multifunctional Imaging System. […] We incubated a fibroblast cell line from a type I SMA patient (3813 cell line) with different doses of analogues and assessed the SMN protein level by quantitative western blotting (FIG. 4). We observed that analogue 8 m at concentration of 37 nanomolar increased the SMN protein level by 2-3 fold. […] This could be due with the intrinsic mechanism of action or to other causes, such us concentration dependent compound solubility.

SMN1-luciferase reporter = SMN1-luciferase reporter control cell line; assay type: cell-based, human; conditions: SMN1-luc reporter, FIG. 1
Source text: A cell-based quantitative high throughput screening (qHTS) assay is used to identify compounds able to increase SMN production. The assay uses a SMN2-luciferase reporter to determine if exon 7 of the SMN gene is expressed, which correlates with increased full-length SMN production from the SMN2 gene. As controls, a homologue SMN1-luciferase reporter cell line looks for variations in expression of the SMN1 gene and a cell line with just the luciferase reporter looks at the capacity of the compounds to inhibit luciferase. In addition, increments in SMN production by lead compounds were confirmed by Western-Blot analysis using SMA patient fibroblasts.
The SMN reporters used herein are modified from those previously described (M. L. Zhang, C. L. Lorson, E. J. Androphy and J. Zhou, An in vivo reporter system for measuring increased inclusion of exon 7 in SMN2 mRNA: potential therapy of SMA, Gene Ther 8 (2001), pp. 1532-1538.)
The sequence of the SMN1 reporter vector used herein is given in SEQ ID NO.:1, while that of the SMN2 reporter vector is given in SEQ ID NO.:2. […]

In the case of NC(=O)C1CCN(c2nc(-c3ccc(Br)cc3)cs2)CC1 [MLS000698854], the “SMN protein by Western blot (in words)” value (human SMN protein) is reported as “concentration-dependent increase in SMN protein” and the “expression of SMN1 (in words)” value (SMN1-luciferase reporter) is reported as “does not affect the expression of SMN1”.
